# Laboratory results from US20240423246A1, “RAPAMYCIN FOR INCREASED MILK PRODUCTION” (THE STATE OF ISRAEL, MINISTRY OF AGRICULTURE & RURAL …, priority 2023, published 2024).
# Experiments:
# [1] = Mammary tissue morphology and pathology after intramammary rapamycin (H&E); type: in vivo, bovine (Holstein calves)
# Experimental: (§1) Three-month-old female Holstein calves (˜90 kg body weight [BW]) that were raised on the Volcani Center's experimental farm were used in these experiments. During the experimental periods, each mammary gland was administered via the teat canal with 2 mL of vehicle, composed of sterile PBS containing 10% polyethylene glycol (Sigma, St. Louis, MO) and 10% Tween 80 (Sigma). In individual experiments, the vehicle was supplemented with Evans blue to analyze the penetration of this solution into the mammary epithelium, or with rapamycin to analyze its effect on cellular activities. The vehicle was administered using a sterile 22G IV cannula (Deltaven, Viadana, (MN) Italy), cut to ˜1.5 cm and inserted (without the needle) into the teat canal. […] In the relevant experiments, estrogen (0.1 mg/kg per day, Sigma) and progesterone (0.25 mg/kg per day, Sigma) were administered following the rapamycin treatment by daily subcutaneous injections for 4 consecutive days. The design of the studies was based on the distinct morphology and activity of the individual “quarters” (i.e., glands) of the bovine udder which can be individually affected. Thus, in studies analyzing the rapamycin effects, front or rear glands of each side of the calf served as internal controls for the other two rapamycin-administered glands. The dye Evans blue was added to one of the vehicle-treated glands to follow its penetration into the epithelial morphology in close and far regions from the teat (FIG. 1).
# Bovine mammary samples were fixed in Bouin's solution, dehydrated in a graded ethanol series (50% to 100%), cleared in xylene and embedded in paraffin. Paraffin sections (5 μm) were stained with hematoxylin and eosin (H&E; Sigma) to visualize the morphology of the mammary layers.
# (§2) To determine an effective concentration and administration interval, mammalian target of rapamycin (mTOR) responsiveness to rapamycin administration was studied in parenchymal regions that were close to and far from the teat. Rapamycin was delivered to the parenchymatic region of two calves at two concentrations (4.16 or 8.32 mg/gland per day). The calves were sacrificed 24 h or 48 h later and the udders were removed. […] Note that complete repression of mTOR activity was avoided in these experiments to preserve the self-renewing capability of the epithelial stem cells.
# The effect of 3 weeks of skip-a-day rapamycin administration (8.32 mg/gland per day) on stem cell self-renewal (FIGS. 3A-3F) was examined.
# To study the effect of rapamycin administration and induced stem cell self-renewal on mammary cell proliferation and milk protein expression, front and rear mammary glands of three calves (six for each treatment) were infused with either vehicle or rapamycin for 3 weeks (8.3 mg/gland per day). […]
# [2] = system: Notch1, Jagged1, Delta1, LGR4, LGR5; test: Relative gene expression of stem cell markers in treated glands (real-time PCR); type: in vivo, bovine (Holstein calves); conditions: 3 weeks skip-a-day rapamycin; not significant at P<0.05
# Experimental: FIG. 4A-4B: (FIG. 4A) Dispersed cells isolated from individual vehicle- and rapamycin-treated mammary glands were seeded in 96-well plates and cultured in mammary medium. At the indicated time points (arrows), cells were trypsinized, counted and reseeded. Inset: cell number at the end of the culture period. Bars represent mean±SEM. (FIG. 4B) Relative gene expression analysis of luminal progenitor marker (Stat5) and stem cell markers (Notch1, Jagged1, Delta1, LGR4, LGR5). N=4 for vehicle-treated and 3 for rapamycin-treated glands. Six wells of cells from each gland were analyzed.
# RNA was extracted from the parenchymal region of each mammary gland using TRIzol reagent and reverse-transcribed with the qScript Synthesis Kit (Quanta BioSciences, Beverly, MA). RNA quality and quantity were determined in a NanoDrop 1000 spectrophotometer (Thermo Fisher Scientific, Wilmington, DE). Quantitative real-time PCR analyses were performed in a StepOnePlus instrument (Applied Biosystems, Foster City, CA) in a […] reaction volume containing 1 μL cDNA, 5 μL PerfeCta SYBR Green FastMix, Rox (2X) (Quanta BioSciences) and 0.5 μL of the primers listed in Table 1. The thermal cycling conditions consisted of 20 s at 95° C. followed by 40 cycles of 3 s at 95° C. and 30 s at 60° C. […] Fold change (relative expression) was calculated using StepOne v2.1 and DataAssist v2.0 software (Applied Biosystems). […]
# [3] = target: T1, mammalian target of rapamycin (mTOR) (Bos taurus, UniProt E1BFB4); test: S6 phosphorylation after 3 weeks of skip-a-day intramammary rapamycin administration (immunoblot); type: in vivo, bovine (Holstein calves)
# Experimental: (§3) Three-month-old female Holstein calves (˜90 kg body weight [BW]) that were raised on the Volcani Center's experimental farm were used in these experiments. During the experimental periods, each mammary gland was administered via the teat canal with 2 mL of vehicle, composed of sterile PBS containing 10% polyethylene glycol (Sigma, St. Louis, MO) and 10% Tween 80 (Sigma). In individual experiments, the vehicle was supplemented with Evans blue to analyze the penetration of this solution into the mammary epithelium, or with rapamycin to analyze its effect on cellular activities. […]
# Proteins from the parenchymal region of each mammary gland were extracted with RIPA buffer containing 10 mM Tris-HCl pH 7.5, 150 mM NaCl, 0.1% SDS, 1% sodium deoxycholate and 5 mM EDTA (Sigma), protease inhibitor cocktail and phosphatase inhibitor cocktail II (both from Sigma). Equal amounts of protein, determined by QPRO-BCA Kit Standard (Cyanagen, Bologna, Italy) according to the manufacturer's protocol, were subjected to SDS-PAGE. […] The expression levels of phosphorylated S6 (pS6) and β-actin were determined according to the signals generated with their respective antibodies. Signals were generated with WESTAR Supernova (Cyanagen, Bologna, Italy) combined with Super Signal chemiluminescent substrate (Thermo Fisher Scientific), and detected in a Syngene analyzer (Cambridge, UK).
# [4] = system: mammary epithelial cells; test: Mammary cell proliferation by PCNA staining after rapamycin followed by estrogen and progesterone; type: in vivo, bovine (Holstein calves); conditions: 3 weeks 8.3 mg/gland per day, then estrogen and progesterone for 4 days
# Experimental: FIGS. 6A-6C: (FIG. 6A) lower and (FIG. 6B) higher magnifications of PCNA-stained parenchymal cells and counterstained with hematoxylin. S, small ducts; L, large ducts. Bar=50 μm. (FIG. 6C) PCNA+ cells were analyzed in total (left plot), basal (middle plot) and luminal cell (right plot) populations of the small and large ducts. Six independent microscopic fields (X10 magnification) from each of the six glands treated with vehicle and six glands treated with rapamycin were analyzed. Overall, 127 ducts and 10,619 cells, and 122 ducts and 9999 cells were analyzed in the vehicle-treated and rapamycin-treated glands, respectively. ** P<0.01, *** P<0.001.
# as §3, with “activities. The vehicle was administered using a sterile 22G IV cannula (Deltaven, Viadana, (MN) Italy), cut to ˜1.5 cm and inserted (without the needle) into the teat canal.” for “activities.”
# [5] = system: bovine mammary epithelial stem cell population; test: Propagation rate of cultured cells from vehicle- and rapamycin-treated glands; type: cell-based
# Experimental: For propagation rate, cells from each treatment were seeded in 96-well cell-culture plates (Corning, Corning, NY) at a density of 10,000 cells/well and cultured in mammary medium composed of DMEM-F12 medium containing 5% FBS, hydrocortisone ([…], Sigma), insulin ([…], Sigma), gentamicin ([…], Biological Industries), streptomycin and penicillin ([…] and 100 U/ml, respectively), hEGF (10 ng/ml, Merck, Darmstadt, Germany), hFGF2 (10 ng/ml, Merck), heparin (4 mg/ml, Merck), cholera toxin (10 ng/ml, Sigma) and B27 ([…], Invitrogen, Carlsbad, CA) (10) for the indicated period.
# Rapamycin's effect on cell-propagation rate was analyzed in cultures from individual vehicle- and rapamycin-treated glands (FIG. 4A). This method produces a clear and significant distinction of the bovine mammary epithelial stem cell population from the more differentiated ones.
# [6] = target: T1, mammalian target of rapamycin (mTOR); test: S6 phosphorylation in mammary parenchyma after single intramammary rapamycin administration (immunoblot, immunohistochemistry); type: in vivo, bovine (Holstein calves)
# Experimental: as §1
# Immunohistochemistry was performed on the 5-μm paraffin-embedded sections after antigen retrieval. The reaction with primary antibodies against β-casein (Barash lab), pS6 (Cell signaling Inc.), CK18 (GeneTex), and PCNA (BioLegend), was initiated by blocking the sections with 10% bovine serum albumen and 5% goat serum in 0.1% PBST for 1 h prior to overnight incubation with the first antibody at 4° C. Sections were washed and incubated with N-Histofine (Nichirei Biosciences, Tokyo, Japan) for 30 min at room temperature. Signals were generated with 3,3-diaminobenzidine (DAB) substrate (Vector Laboratories, Burlingame, CA).
# Proteins from the parenchymal region of each mammary gland were extracted with RIPA buffer containing 10 mM Tris-HCl pH 7.5, 150 mM NaCl, 0.1% SDS, 1% sodium deoxycholate and 5 mM EDTA (Sigma), protease inhibitor cocktail and phosphatase inhibitor cocktail II (both from Sigma). Equal amounts of protein, determined by QPRO-BCA Kit Standard (Cyanagen, Bologna, Italy) according to the manufacturer's protocol, were subjected to SDS-PAGE. Fractionated proteins were transferred to nitrocellulose filters and the uploading of equal amounts of protein per sample was confirmed by staining the blot with Ponceau S (Sigma). The expression levels of phosphorylated S6 (pS6) and β-actin were determined according to the signals generated with their respective antibodies. Signals were generated with WESTAR Supernova (Cyanagen, Bologna, Italy) combined with Super Signal chemiluminescent substrate (Thermo Fisher Scientific), and detected in a Syngene analyzer (Cambridge, UK).
# as §2
# [7] = system: bovine mammary cell; conditions: xanthosine administration; cited from earlier work
# [8] = 24 h after infusion, close to nipple, rapamycin 4.16 mg
# [9] = 24 h after infusion, close to nipple, rapamycin 8.32 mg
# [10] = 48 h after infusion, close to nipple, rapamycin 4.16 mg
# [11] = 48 h after infusion, close to nipple, rapamycin 8.32 mg
# [12] = 48 h after infusion, far from nipple, rapamycin 4.16 mg
# [13] = 48 h after infusion, far from nipple, rapamycin 8.32 mg
smiles,measurement,setting,value
CO[C@H]1C[C@@H]2CC[C@@H](C)[C@@](O)(O2)C(=O)C(=O)N2CCCC[C@H]2C(=O)O[C@H]([C@H](C)C[C@@H]2CC[C@@H](O)[C@H](OC)C2)CC(=O)[C@H](C)/C=C(\C)[C@@H](O)[C@@H](OC)C(=O)[C@H](C)C[C@H](C)/C=C/C=C/C=C/1C [Rapamycin],differences in morphology between vehicle- and rapamycin-treated glands,"[1]; 3 weeks 8.3 mg/gland per day, then estrogen and progesterone for 4 days",no apparent differences
same,effect on mammary gland morphology,"[1]; 3 weeks skip-a-day, 8.32 mg/gland per day",not associated with any detectable effect
same,effect on tissue morphology in the parenchymatic regions,"[1]; 4.16 or 8.32 mg/gland, 24 h or 48 h after administration",did not seem to have any effect
same,pathological consequences of the amount and methodology chosen,[1]; intramammary administration,did not have pathological consequences
same,"stem cell marker gene expression, more than in vehicle-treated counterparts",[2],8-20%
same,decrease in S6 phosphorylation,"[3]; 3 weeks skip-a-day, 8.32 mg/gland per day, immunoblot 48 h after termination",53%
same,decrease in mTOR activity,"[3]; skip-a-day, 3-week intramammary administration",~50%
same,increase in total number of PCNA+ cells,[4],20%
same,"propagation rate difference, cultures from rapamycin-treated vs vehicle-treated gland",[5]; day 37 of culture,1.15 fold
same,"propagation rate difference, cultures from rapamycin-treated vs vehicle-treated gland",[5]; day 52 of culture,1.4 fold
same,"propagation rate difference, cultures from rapamycin-treated vs vehicle-treated gland",[5]; end of the culture period,2.6 fold
same,pS6/S6 relative to vehicle (100%),[6]; [8],(66%)
same,pS6/β-actin relative to vehicle (100%),[6]; [8],(75%)
same,pS6/S6 relative to vehicle (100%),[6]; [9],(95%)
same,pS6/β-actin relative to vehicle (100%),[6]; [9],(63%)
same,pS6/S6 relative to vehicle (100%),[6]; [10],(71%)
same,pS6/β-actin relative to vehicle (100%),[6]; [10],(64%)
same,pS6/S6 relative to vehicle (100%),[6]; [11],(76%)
same,pS6/β-actin relative to vehicle (100%),[6]; [11],(81%)
same,pS6/S6 relative to vehicle (100%),[6]; [12],(93%)
same,pS6/β-actin relative to vehicle (100%),[6]; [12],(68%)
same,pS6/S6 relative to vehicle (100%),[6]; [13],(48%)
same,pS6/β-actin relative to vehicle (100%),[6]; [13],(56%)
O=c1[nH]c(=O)c2ncn([C@@H]3O[C@H](CO)[C@@H](O)[C@H]3O)c2[nH]1 [xanthosine],suppression of bovine mammary cell proliferation,[7],50%
